Values after ≈ are worked out from the molar mass of the structure shown.
How the values were obtained:
[1] = system: participants with treatment-resistant depression (TRD); experiment: Montgomery-Asberg Depression Rating Scale (MADRS), Phase IIb open-label study of psilocybin adjunct to SSRI; assay type: in vivo, human; details: for MADRS total score, Mean (SD) / MADRS Remitters (MADRS total score ≤10) / MADRS Responders (≥50% decrease in MADRS total score from baseline) / MADRS total score, Change from baseline Mean (SD): 25 mg + SSRI, N = 19
Description: The effectiveness of 25 mg COMP360 as an adjunctive therapy in participants with TRD was explored.
The study was a Phase IIb, international multicentre, fixed-dose, open-label study. The study population included adult men and women, 18 years of age or older, with TRD. […] The duration of the current episode must be at least 3 months but not more than 2 years.
The psilocybin administration session (V3, day 1) will last approximately 6 h and will be supported by a trained therapist. The study drug will be administered simultaneously to up to six participants. Blood pressure will be monitored continuously during the session. The COMP360 administration session may be video recorded for training and adherence monitoring. After the acute effects of psilocybin pass, participants will be evaluated for safety and accompanied home. On day 2 (V4), the day following psilocybin administration, participants will be seen in person for a safety check, assessment of suicidality and clinical and self-report assessments, and to discuss their experience during the psilocybin administration session. All sessions between the therapist and the participant may be audio recorded for adherence monitoring and quality assurance.
The primary objective of this study is to evaluate the efficacy of 25 mg of psilocybin adjunct to serotonergic antidepressants in TRD participants, as assessed by the change in the Montgomery-Asberg Depression Rating Scale (MADRS) total score from baseline. Baseline is defined as the assessment score obtained on Day −1. The primary time point is week 3.
(§1) Additional objectives of this study are to assess the efficacy of psilocybin […] on the: • (a) proportion of subjects with response defined as a ≥50% decrease in MADRS total score from baseline to week 3. • (b) proportion of subjects with remission (defined as a MADRS total score ≤10) at week 3 post psilocybin administration. • (c) changes from baseline Clinical Global Impression-Severity scale (CGI-S) at week 3 post psilocybin administration.

[2] = system: participants with treatment-resistant depression (TRD); experiment: Clinical Global Impression - Severity scale (CGI-S), same study; assay type: in vivo, human; details: for CGI-S Responders: 25 mg + SSRI, N = 19
Description: as §1

[3] = system: participants with treatment-resistant depression (TRD); experiment: Clinical Global Impression - Improvement scale (CGI-I), same study; assay type: in vivo, human; details: 25 mg + SSRI, N = 19
[4] = system: participants with treatment-resistant depression (TRD); experiment: Safety: treatment emergent adverse events (TEAE), same study; assay type: in vivo, human
Description: Another objective is to evaluate the safety and tolerability of psilocybin in subjects with TRD based on AEs, changes in vital signs, and suicidal ideation/behaviour (measured using the Columbia-Suicide Severity Rating Scale [C-SSRS]) score at all visits.
Throughout the course of the study, all adverse events (AEs) will be monitored and recorded and will include the AE's description, start and end date, seriousness, severity, action taken, and relationship to the treatment. If AEs occur, the first concern will be the safety of the study subjects.
An AE can therefore be any unfavorable and unintended sign (including an abnormal laboratory finding, for example), symptom, or disease temporally associated with the use of a medicinal product, whether considered related to the medicinal product.
AEs will be coded by Preferred Term (PT) using the Medical Dictionary for Regulatory Activities (MedDRA) classification. All reported AEs with onset or worsening after the administration of study medication will be included in the analysis. The incidence of AEs will be summarized by treatment group, and by severity and relationship to psilocybin. Serious AEs and AEs leading to withdrawal from the study will be tabulated.
A TEAE is defined as any AE that has an onset on or after the dose of psilocybin, or any pre-existing condition that has worsened on or after the dose of psilocybin.
The incidence of TEAEs and treatment-related AEs will also be summarized by maximum severity and most-related relationship to psilocybin by MedDRA primary system organ class and PT. The summary will include the total number and percentage of subjects reporting an event.

[5] = week 3, single 25 mg dose adjunct to SSRI
[6] = 25 mg adjunct to SSRI, 19 patients
[7] = on the day of dosing or the day after
[8] = severity mild, 25 mg + SSRI, N = 19
[9] = severity moderate, 25 mg + SSRI, N = 19

CN(C)CCc1c[nH]c2cccc(OP(=O)(O)O)c12 [COMP360, psilocybin]
MADRS total score, Mean (SD) ([1]; Baseline (before dosing)): 31.7 (5.77)
MADRS Remitters (MADRS total score ≤10) ([1]; Day 2): 10 (52.6) n (%)
MADRS Responders (≥50% decrease in MADRS total score from baseline) ([1]; Day 2): 12 (63.2) n (%)
MADRS total score, Change from baseline Mean (SD) ([1]; Day 2): −18.3 (11.85)
MADRS total score, Mean (SD) ([1]; Day 2): 13.4 (12.92)
MADRS Remitters (MADRS total score ≤10) ([1]; Week 1): 9 (47.4) n (%)
MADRS Responders (≥50% decrease in MADRS total score from baseline) ([1]; Week 1): 11 (57.9) n (%)
MADRS total score, Change from baseline Mean (SD) ([1]; Week 1): −17.1 (11.29)
MADRS total score, Mean (SD) ([1]; Week 1): 14.6 (11.88)
MADRS Remitters (MADRS total score ≤10) ([1]; Week 2): 8 (42.1) n (%)
MADRS Responders (≥50% decrease in MADRS total score from baseline) ([1]; Week 2): 11 (57.9) n (%)
MADRS total score, Change from baseline Mean (SD) ([1]; Week 2): −15.7 (12.02)
MADRS total score, Mean (SD) ([1]; Week 2): 16.0 (11.70)
MADRS Remitters (MADRS total score ≤10) ([1]; Week 3): 8 (42.1) n (%)
MADRS Responders (≥50% decrease in MADRS total score from baseline) ([1]; Week 3): 8 (42.1) n (%)
MADRS total score, Change from baseline Mean (SD) ([1]; Week 3): −14.9 (11.97)
MADRS total score, Mean (SD) ([1]; Week 3): 16.8 (11.62)
proportion of participants who were MADRS remitters ([1]; by week 3, single 25 mg dose adjunct to SSRI): ~ 42%
proportion of participants who were MADRS responders [1, 5]: ~ 42%
average reduction in MADRS total score from baseline ([1]; week 3, single 25 mg dose adjunct to SSRI, 19 patients): 14.9
CGI-S Responders ([2]; Day 2): 8 (42.1) n (%)
CGI-S Responders ([2]; Week 1): 12 (63.2) n (%)
CGI-S Responders ([2]; Week 2): 11 (57.9) n (%)
CGI-S Responders ([2]; Week 3): 10 (52.6) n (%)
average CGI-S score ([2]; baseline ("moderately ill")): 4
average CGI-S score ([2]; week 3 ("mildly ill"), single 25 mg dose adjunct to SSRI): 3
proportion of participants who were CGI-S responders [2, 5]: 52.6%
CGI-I Responders ([3]; Day 2): 11 (57.9) n (%)
CGI-I Responders ([3]; Week 1): 12 (63.2) n (%)
CGI-I Responders ([3]; Week 2): 8 (42.1) n (%)
CGI-I Responders ([3]; Week 3): 7 (36.8) n (%)
TEAEs classed as serious (TESAEs) [4, 6]: no TEAEs classed as serious
TEAEs related to suicidal ideation or behaviour or intentional self-injury [4, 6]: no TEAEs related to suicidal ideation or behaviour or intentional self-injury
tolerability [4, 6]: generally well tolerated
resolution of headache TEAE ([4]; all cases): all cases resolved in one or two days
most common TEAE headache, events [4, 7]: 6 events
most common TEAE headache, participants [4, 7]: 6 participants
TEAE Blood pressure increase [4, 8]: 1 (5.3) n (%)
TEAE Diarrhoea [4, 8]: 1 (5.3) n (%)
TEAE Dizziness [4, 8]: 1 (5.3) n (%)
TEAE Dry mouth [4, 8]: 1 (5.3) n (%)
TEAE Fall [4, 8]: 1 (5.3) n (%)
TEAE Headache [4, 8]: 5 (26.3) n (%)
TEAE Palpitations [4, 8]: 1 (5.3) n (%)
TEAE Skin abrasion [4, 8]: 1 (5.3) n (%)
TEAE Vertigo [4, 8]: 1 (5.3) n (%)
TEAE Depression [4, 9]: 1 (5.3) n (%)
TEAE Headache [4, 9]: 1 (5.3) n (%)
TEAE Hypertension ([4]; severity severe, 25 mg + SSRI, N = 19): 1 (5.3) n (%)
solubility (Solubility in water): ~15 mg/mL (≈ 52.8 mM)

— patent US20260232701A1, “[…] AN […] REUPTAKE INHIBITOR FOR USE IN THE TREATMENT OF TREAMENT- RESISTANT DEPRESSION” (Compass Pathfinder Limited, priority 2021, published 2026)
